# Where a SMILES comes first, the peptide text is derived from it.
# Key:
# COL1A1 promoter = COL1A1 promoter luciferase reporter inhibition assay in LX-2 cells; type: cell-based, human; details: for inhibition at 500 µM: Homo sapiens, read-out: Inhibitory Rate (%) of COL1A1 promotor; for relative fluorescence unit (RFU) of COL1A1 promotor: mean ± SD, n = 3, Control 124874.7 ± 10750.9;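 for all read-outs here: Anti-fibrotic screen: luciferase reporter driven by the COL1A1 promoter in human hepatic stellate LX-2 cells, compounds applied in complete medium in 96-well plates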
# Method: A total of 32 target compounds, the lead compound L-Asp, and the positive control epigallocatechin gallate (EGCG), known for its anti-hepatic fibrotic activity [29], were tested for inhibitory effects on COL1A1 promoter activity at a concentration of 0.5 mM.
# The LX-2 cells at 90% confluent were transfected with the plasmid of pGL4.17-COL1A1 promoter using Lipofectamine 2000 (Invitrogen, 11668019, Carlsbad, CA, USA) with Opti-MEM serum-free medium (Gibco, 1930104). After culturing for 6 h, the cells were replaced with a complete medium and seeded in 96-well plates for 24 h. The compound to be tested was prepared using a complete medium and added to the 96-well plate. After 24 h, Bright-Glo Luciferase Assay System (Promega, Madison, WI, USA) was used to detect the activity of COL1A1 promoter and the assaying inhibition rate.
# [1] = test system: IKKβ-NF-κB signaling pathway; experiment: LPS-induced inflammation in LX-2 cells (western blot); type: cell-based, human; details: LPS 1 μg/mL, 24 h, 500 μM bands scanned
# Method: Inflammation is crucial in the onset and progression of liver fibrosis, and fibrosis can further exacerbate tissue inflammation. […] To assess the anti-inflammatory effects of Compounds 41 and 8a, LX-2 cells were pre-incubated in serum-free medium for 24 h before LPS stimulation, followed by treatment with different concentrations of the compounds in serum-free medium containing 1 μg/mL LPS for another 24 h. Changes in inflammatory cytokine protein levels were analyzed using western blotting.
# The IKKβ-NF-κB signaling pathway has been closely linked to the severity of liver fibrosis, with IKKβ serving as the primary catalytic subunit responsible for NF-κB activation. Therefore, this study investigated the NF-κB pathway by measuring IKKβ kinase activity. […] To evaluate the effects of the target compounds on LPS-induced inflammatory cytokines, four concentrations (50, 100, 200 and 500 μmol/L) were tested, and the results were analyzed by grayscale scanning of western blot bands using ImageJ software (version 1.53t), with normalization to GAPDH protein levels.
# After the confluence of LX-2 cells reached 90%, the cells were treated with serum-free medium for 24 h. 2 ng/mL TGFβ1 or 1 μg/mL LPS were used in combination with compounds of different concentrations for 24 h. The samples of cells were lysed in RIPA buffer supplemented with protease inhibitor cocktail (Roche) and separated by SDS-PAGE. After the proteins were transferred to the PVDF membrane, 5% skim milk in TBS-T buffer was used to block them at room temperature for 2 h. Specific primary and secondary antibodies were used to detect the target protein. Finally, the blot was visualized using the Tanon 5200 system (Tanon, Shanghai, China) and the protein expression of GAPDH was used as the internal reference.
melting point [°C],Compound,"inhibition at 500 µM (COL1A1 promoter; LX-2 cells, 0.5 mM, 24 h) [%]",relative fluorescence unit (RFU) of COL1A1 promotor (COL1A1 promoter; LX-2 cells) [RFU],inhibition of inflammatory factors [1],"Inhibitory Rate (%) of COL1A1 promotor (COL1A1 promoter; LX-2 cells, 0.5 mM, 24 h) [%]","fold decrease in COL1A1 promoter inhibitory activity relative to 45 (COL1A1 promoter; 0.5 mM, versus 45) [fold]"
253.1 to 256.8,"Cc1cc(=O)n2c(CC(=O)N[C@@H](CC(=O)O)C(=O)O)csc2n1 [Compound 35, (2-(7-methyl-5-oxo-5H-thiazolo [3,2-a]pyrimidin-3-yl)acetyl)-L-aspartic acid]",< 0,161478.3 ± 67708.9,,,
113.6 to 115.1,"O=C(O)C[C@H](NC(=O)OCC1c2ccccc2-c2ccccc21)C(=O)NCCO [Compound 5, (S)-3-((((9H-fluoren-9-yl)methoxy)carbonyl)amino)-4-((2-hydroxyethyl)amino)-4-oxobutanoic acid]",24 ± 15.4,94919.5 ± 19273.7,,,
190.6 to 192.1,"N[C@@H](CC(=O)O)C(=O)OCc1ccc([N+](=O)[O-])cc1 [Compound 11f, (S)-3-amino-4-((4-nitrobenzyl)oxy)-4-oxobutanoic acid]",20.6 ± 14.3,99123.6 ± 17860.3,,,
195.3 to 198.6,"NC(=O)C[C@H](N)C(=O)N[C@@H](CC(=O)O)C(=O)O [Compound 8b, L-asparaginyl-L-aspartic acid] (H-Asn-Asp-OH)",23.8 ± 4.57,95132.4 ± 5710.5,,,
218 to 220.2,"Cc1cc(=O)n2c(CNC(=O)c3cccc(F)c3F)csc2n1 [Compound 28a, 2,3-difluoro-N-((7-methyl-5-oxo-5H-thiazolo [3,2-a]pyrimidin-3-yl)methyl)benzamide]",43.9 ± 6.36,70040.5 ± 7951.7,,,
257.8 to 259.4,"N[C@@H](CC(=O)Nc1nc(CO)cs1)C(=O)O [Compound 4a, N^4-(4-(hydroxymethyl)thiazol-2-yl)-L-asparagine]",14.9 ± 8.45,106237.2 ± 10544.5,,,
127.2 to 129.6,"COC(=O)[C@H]1C[C@H](Oc2cc(C)nn3c(-c4ccc(OC)c(OC)c4)cnc23)CN1 [Compound 43, Methyl (2R,4S)-4-((3-(3,4-dimethoxyphenyl)-6-methylimidazo [1,2-b]pyridazin-8-yl)oxy)pyrrolidine-2-carboxylate]",38.2 ± 3.28,77132.5 ± 4101.8,,,1.8
205.1 to 207.3,"Cc1ccc(COC(=O)[C@@H](N)CC(=O)O)cc1 [Compound 11d, (S)-3-amino-4-((4-methylbenzyl)oxy)-4-oxobutanoic acid]",19.9 ± 4.99,100087.5 ± 6229.2,,,
217.1 to 219.8,"NC(Cc1cc(=O)c(O)co1)C(=O)O (stereo not drawn) [Compound 20a, 2-amino-3-(5-hydroxy-4-oxo-4H-pyran-2-yl)propanoic acid]",17.9 ± 10.1,102508.7 ± 12580.9,,,
156.3 to 158.7,"N[C@@H](CC(=O)OCc1cc(=O)c(O)co1)C(=O)O [Compound 23a, (S)-2-amino-4-((5-hydroxy-4-oxo-4H-pyran-2-yl)methoxy)-4-oxobutanoic acid]",27.9 ± 1.16,90057.5 ± 1452.6,,,
156.1 to 157.5,"CN[C@@H](CCC(=O)O)C(=O)O [Compound 1, Methyl-L-glutamic acid]",< 0,143674.9 ± 32109.7,,,
228.1 to 229.6,"Cc1ccc(COC(=O)C[C@H](N)C(=O)O)cc1 [Compound 11a, (S)-2-amino-4-((4-methylbenzyl)oxy)-4-oxobutanoic acid]",11.4 ± 18.5,110620.0 ± 23148.4,,,
207.2 to 209.5,"N[C@@H](CC(=O)OCc1ccc([N+](=O)[O-])cc1)C(=O)O [Compound 11c, (S)-2-amino-4-((4-nitrobenzyl)oxy)-4-oxobutanoic acid]",< 0,158140.3 ± 50740.1,,,
227.6 to 230.2,"N[C@@H](CC(=O)OCc1ccc(F)cc1)C(=O)O [Compound 11b, (S)-2-amino-4-((4-fluorobenzyl)oxy)-4-oxobutanoic acid]",< 0,130725.3 ± 8310.2,,,
197.6 to 199.5,"N[C@@H](CC(=O)O)C(=O)OCc1ccc(F)cc1 [Compound 11e, (S)-3-amino-4-((4-fluorobenzyl)oxy)-4-oxobutanoic acid]",27.9 ± 5.81,89998.6 ± 7257.5,,,
268.9 to 271.2,"N[C@@H](CC(=O)Nc1nccs1)C(=O)O [Compound 4b, N^4-(thiazol-2-yl)-L-asparagine]",31.2 ± 14.3,85934.6 ± 17864.6,,,

# Further lines, the compound ahead of its results:
Compound,melting point [°C],"inhibition at 500 µM (COL1A1 promoter; LX-2 cells, 0.5 mM, 24 h) [%]",relative fluorescence unit (RFU) of COL1A1 promotor (COL1A1 promoter; LX-2 cells) [RFU],inhibition of inflammatory factors [1],"Inhibitory Rate (%) of COL1A1 promotor (COL1A1 promoter; LX-2 cells, 0.5 mM, 24 h) [%]","fold decrease in COL1A1 promoter inhibitory activity relative to 45 (COL1A1 promoter; 0.5 mM, versus 45) [fold]"
"N[C@@H](CC(=O)OCc1cc(=O)n2ccsc2n1)C(=O)O [Compound 37, (S)-2-amino-4-oxo-4-((5-oxo-5H-thiazolo [3,2-a]pyrimidin-7-yl)methoxy)butanoic acid]",,8.46 ± 8.16,114307.8 ± 10191.8,,,
"CCNC(=O)C[C@H](N)C(=O)O [Compound 4d, N^4-ethyl-L-asparagine]",,33.1 ± 19,,,,
"Cc1cc(=O)n2c(CNc3ccccn3)csc2n1 [Compound 32a, 7-methyl-3-((pyridin-2-ylamino)methyl)-5H-thiazolo [3,2-a]pyrimidin-5-one]",,47.7 ± 4.81,65321.0 ± 6005.7,,,
"N[C@@H](CC(=O)O)C(=O)O [L-Asp, L-aspartic acid, reference compound]",,11.3 ± 0.35,110724.3 ± 444.6,moderate inhibition,,
"N[C@@H](CC(=O)O)C(=O)NCCO [Compound 6, (S)-3-amino-4-((2-hydroxyethyl)amino)-4-oxobutanoic acid]",,< 0,128613.0 ± 57574.1,,,
"Cc1cc(=O)n2c(COC(=O)C[C@H](N)C(=O)O)csc2n1 [Compound 31, (S)-2-amino-4-((7-methyl-5-oxo-5H-thiazolo [3,2-a]pyrimidin-3-yl)methoxy)-4-oxobutanoic acid]",,14.6 ± 3.11,106608.6 ± 3888.3,,,
"O=C(O[C@@H]1Cc2c(O)cc(O)cc2O[C@@H]1c1cc(O)c(O)c(O)c1)c1cc(O)c(O)c(O)c1 [EGCG, epigallocatechin gallate, reference compound]",,,79340.1 ± 5808.7,,36.46 ± 4.64,
"Cc1cc(=O)n2c(CN[C@@H](CC(=O)O)C(=O)O)csc2n1 [Compound 33, ((7-methyl-5-oxo-5H-thiazolo [3,2-a]pyrimidin-3-yl)methyl)-L-aspartic acid]",,6.39 ± 7.06,116893.2 ± 8812.8,,,
"Cn1cc(O)c(=O)cc1CC(N)C(=O)O (stereo not drawn) [Compound 20b, 2-amino-3-(5-hydroxy-1-methyl-4-oxo-1,4-dihydropyridin-2-yl)propanoic acid]",,24 ± 6.38,94881.8 ± 7963.9,,,
"Cc1cc(=O)n2c(CNC(=O)[C@H](N)CCO)csc2n1 [Compound 29, (R)-2-amino-4-hydroxy-N-((7-methyl-5-oxo-5H-thiazolo [3,2-a]pyrimidin-3-yl)methyl)butanamide]",,33.2 ± 33.3,83406.5 ± 41616.9,,,
"Cc1oc(COC(=O)C[C@H](N)C(=O)O)cc(=O)c1O [Compound 23b, (S)-2-amino-4-((5-hydroxy-6-methyl-4-oxo-4H-pyran-2-yl)methoxy)-4-oxobutanoic acid]",,34.6 ± 1.75,81660.6 ± 2179.5,,,
"Cc1cc(=O)n2c(CC(=O)N[C@H]3CCOC3=O)csc2n1 [Compound 34a, (S)-2-(7-methyl-5-oxo-5H-thiazolo [3,2-a]pyrimidin-3-yl)-N-(2-oxotetrahydrofuran-3-yl)acetamide]",,15.5 ± 16.6,105579.0 ± 20740.0,,,
"CNC(=O)C[C@H](N)C(=O)O [Compound 4c, N^4-methyl-L-asparagine]",,35.5 ± 18.1,80485.7 ± 22615.1,,,
